Laboratory results reported in patent US20210255193A1, “LYSINE REACTIVE PROBES AND USES THEREOF” (The Scripps Research Institute, priority 2017, published 2021).

Legend:
Assay in all cases: competitive isoTOP-ABPP
[1] = molecular target: T1, AGFG1 Arf-GAP domain and FG repeat-containing protein 1 (Homo sapiens, UniProt P52594); type: binding; set-up: key to isoTOP-ABPP reactivity ratio at lysine P52594_K134: R = MS1 peak area ratio, DMSO (heavy) / compound-treated (light); conditions: for isoTOP-ABPP ratio, lysine P52594_K134: 50 uM_231_sol_in vitro
T1 construct: isoTOP-ABPP experiments performed in cell lysates (in vitro); endogenous in cells; host or cells: soluble proteome of human cancer cell lines (MDA-MB-231, Ramos, Jurkat)
T1 sequence (P52594 1-562): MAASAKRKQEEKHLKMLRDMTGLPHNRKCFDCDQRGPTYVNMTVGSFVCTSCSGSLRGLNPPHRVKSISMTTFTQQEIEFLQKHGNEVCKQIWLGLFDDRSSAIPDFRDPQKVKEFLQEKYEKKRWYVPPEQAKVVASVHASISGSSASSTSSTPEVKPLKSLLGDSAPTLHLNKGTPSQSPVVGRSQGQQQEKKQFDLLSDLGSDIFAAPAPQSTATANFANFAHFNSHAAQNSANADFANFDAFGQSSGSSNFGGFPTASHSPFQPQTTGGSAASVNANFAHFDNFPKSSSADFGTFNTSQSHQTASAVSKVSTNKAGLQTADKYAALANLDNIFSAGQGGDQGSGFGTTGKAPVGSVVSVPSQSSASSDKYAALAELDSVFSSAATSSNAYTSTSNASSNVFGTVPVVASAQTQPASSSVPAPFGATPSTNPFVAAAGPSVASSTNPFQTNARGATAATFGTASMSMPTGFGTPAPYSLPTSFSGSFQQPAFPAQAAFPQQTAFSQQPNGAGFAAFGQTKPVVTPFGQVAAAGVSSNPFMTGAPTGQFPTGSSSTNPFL
Protocol: (§1) In vitro covalent fragment treatment for isoTOP-ABPP. All compounds were made up as solutions in DMSO (100×) and were used at a final concentration of 50 μM for activated esters and 100 μM for guanidinylating agents. For each profiling sample, 0.5 ml of lysate was treated with 5 μl of the 100× compound stock solution or 5 μl of DMSO. Samples were treated with activated esters for
(§2) STP-alkyne labeling and click chemistry. For concentration-dependent reactivity measurements by isoTOP-ABPP, 0.5 ml proteome aliquots were treated at ambient temperature with 1 mM STP-alkyne 1 (5 μl of 100 mM stock in DMSO) and 0.1 mM STP alkyne 1 (5 μl of 10 mM stock in DMSO), respectively. For competitive isoTOP-ABPP, after in vitro fragment treatment (detailed above), the samples were labeled for 1 h at ambient temperature with 0.1 mM STP-alkyne 1 (5 μl of 10 mM stock in DMSO). Samples were conjugated by copper-mediated azide-alkyne cycloaddition (CuAAC) to either the light (1 mM STP-alkyne or fragment treated) or heavy (0.1 mM STP-alkyne or DMSO treated) TEV tags (10 μl of 5 mM stocks in DMSO, final concentration=100 μM) using tris(2-carboxyethyl)phosphine hydrochloride
(§3) R value calculation and processing. The ratios of light and heavy MS1 peaks for each unique peptide were quantified with a CIMAGE software using default parameters (3 MS1 acquisitions per peak and signal to noise threshold set to 2.5). For reactivity measurements by isoTOP-ABPP, the R value was calculated from the ratio of MS1 peak areas, comparing the 1 mM STP alkyne sample (light TEV tag) with the 0.1 mM STP alkyne sample (heavy TEV tag). For competitive isoTOP-ABPP, the R value was calculated from the ratio of MS1 peak areas, comparing the DMSO treated sample (heavy TEV tag) with the compound treated sample (light TEV tag). […] Ratios for unique peptide entries are calculated for each experiment; overlapping peptides with the same modified lysine (for example, different charge states, MudPIT chromatographic steps or tryptic termini) are grouped together and the median ratio is reported as the final ratio (R). The peptide ratios reported by CIMAGE were further filtered to ensure the removal or correction of low-quality ratios in each individual data set. The quality filters applied were the following: removal of half tryptic peptides; for ratios with high standard deviations from the median (90% of the median or above) the lowest ratio was taken instead of the median; removal of peptides with R=20 and only a single MS2 event triggered during the elution of the parent ion; manual annotation of all the peptides with ratios of 20, removing any peptides with low quality elution profiles that remained after the previous curation steps (only done for competitive isoTOP-ABPP).
(§4) Cross-data processing for fragment screening. For compound treated samples, biological replicates of the same condition were averaged, if the standard deviation was below 60% of the mean; otherwise, for lysines with at least one R value <4 for a particular compound, the lowest value of the ratio set was taken. For lysines, where all R values for a particular compound were ≥4, the average was reported. For peptides containing several possible modified lysines, the lysine with the highest number of quantification events was used for analysis and the remaining, redundant peptides were reported as alternative modification sites. Peptides included in the aggregate dataset (those used for further bioinformatics and statistical analyses) were required to have been quantified in 2 experiments for competitive isoTOP-ABPP. Lysines were categorized as liganded, if they had at least one ratio R≥4 (hit fragments). For liganded lysines with R=20 for all liganding events, lysines were required to have been quantified with R=20 in two separate experiments and were further required to have been quantified with R<20 in one additional experiment.

[2] = molecular target: T2, HDHD3 Haloacid dehalogenase-like hydrolase domain-containing protein 3 (Homo sapiens, UniProt Q9BSH5); type: binding; set-up: key to isoTOP-ABPP reactivity ratio at lysine Q9BSH5_K15: R = MS1 peak area ratio, DMSO (heavy) / compound-treated (light); conditions: for isoTOP-ABPP ratio, lysine Q9BSH5_K15: 50 uM_231_sol_in vitro; for isoTOP-ABPP reactivity ratio at lysine Q9BSH5_K15 / R value (DMSO/fragment) for probe 1 labeling: 231 sol; for R value (DMSO/fragment) for probe 1 labeling: Q9BSH5_K15
T2 construct: isoTOP-ABPP experiments performed in cell lysates (in vitro); endogenous in cells; host or cells: soluble proteome of human cancer cell lines (MDA-MB-231; Ramos and Jurkat also prepared)
T2 sequence (Q9BSH5 1-251): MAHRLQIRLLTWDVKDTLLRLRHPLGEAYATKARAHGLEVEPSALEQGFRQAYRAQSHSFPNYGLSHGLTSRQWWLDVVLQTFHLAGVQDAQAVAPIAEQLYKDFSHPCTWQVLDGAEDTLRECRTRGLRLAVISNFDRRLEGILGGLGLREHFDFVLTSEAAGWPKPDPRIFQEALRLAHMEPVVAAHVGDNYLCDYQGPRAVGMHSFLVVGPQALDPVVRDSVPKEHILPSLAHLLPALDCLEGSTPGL
Protocol: as §1, §2, §3, §4

[3] = molecular target: T3, ABCE1 ATP-binding cassette sub-family E member 1 (Homo sapiens, UniProt P61221); conditions: for isoTOP-ABPP ratio, lysine P61221_K191 / isoTOP-ABPP ratio, lysine P61221_K478: 50 uM_231_sol_in vitro; for isoTOP-ABPP reactivity ratio at lysine P61221_K478 / R value (DMSO/fragment) for probe 1 labeling / isoTOP-ABPP reactivity ratio at lysine P61221_K191: 231 sol
T3 construct: isoTOP-ABPP experiments performed in cell lysates (in vitro); endogenous in cells; host or cells: soluble proteome of human cancer cell lines (MDA-MB-231, Ramos, Jurkat)
Protocol: as §1, §2, §3, §4

O=C(ON1C(=O)CCC1=O)c1cc(C(F)(F)F)cc(C(F)(F)F)c1 [fragment 46, 3,5-Bis(trifluoromethyl)benzoic acid NHS ester]
isoTOP-ABPP ratio, lysine P52594_K134 [1]: 1.0
isoTOP-ABPP ratio, lysine Q9BSH5_K15 [2]: 1.4
isoTOP-ABPP ratio, lysine P61221_K191 [3]: 20.0
isoTOP-ABPP ratio, lysine P61221_K478 [3]: 11.4

NC(=O)c1cc(C(F)(F)F)cc(C(F)(F)F)c1 [fragment 51, reference compound]
isoTOP-ABPP ratio, lysine P52594_K134 [1]: 0.9
isoTOP-ABPP ratio, lysine Q9BSH5_K15 [2]: 0.8
isoTOP-ABPP ratio, lysine P61221_K191 [3]: 1.0
isoTOP-ABPP ratio, lysine P61221_K478 [3]: 0.9

O=C(CN1C(=O)c2ccccc2C1=O)Oc1c(F)c(F)c(F)c(F)c1F [fragment 27, Pentafluorophenyl 2-(1,3-dioxoisoindolin-2-yl)acetate]
isoTOP-ABPP reactivity ratio at lysine P52594_K134 ([1]; 50 uM, 231 sol, in vitro): 1.5
isoTOP-ABPP reactivity ratio at lysine Q9BSH5_K15 ([2]; 50 uM, in vitro): 2.3
isoTOP-ABPP reactivity ratio at lysine P61221_K478 ([3]; 50 uM, in vitro): 2.1

O=C(CCc1cn(-c2ccccc2)nc1-c1ccccc1)Oc1c(F)c(F)c(F)c(F)c1F [fragment 19, Pentafluorophenyl 3-(1,3-diphenyl-1H-pyrazol-4-yl)propanoate]
R value (DMSO/fragment) for probe 1 labeling ([1]; P52594_K134, 50 uM, 231 sol, in vitro): 1.0
R value (DMSO/fragment) for probe 1 labeling ([2]; 50 uM, in vitro): 20.0
R value (DMSO/fragment) for probe 1 labeling ([3]; P61221_K191, 50 uM, in vitro): 0.9
R value (DMSO/fragment) for probe 1 labeling ([3]; P61221_K478, 50 uM, in vitro): 1.1

COc1cc(CCC(=O)Oc2ccc([N+](=O)[O-])cc2[N+](=O)[O-])cc(OC)c1OC [fragment 33, 2,4-Dinitrophenyl 3-(3,4,5-trimethoxyphenyl)propanoate]
isoTOP-ABPP reactivity ratio at lysine P52594_K134 ([1]; 50 uM, 231 sol, in vitro): 20.0
isoTOP-ABPP reactivity ratio at lysine Q9BSH5_K15 ([2]; 50 uM, in vitro): 1.5
isoTOP-ABPP reactivity ratio at lysine P61221_K191 ([3]; 50 uM, in vitro): 1.1
isoTOP-ABPP reactivity ratio at lysine P61221_K478 ([3]; 50 uM, in vitro): 1.2

O=C(Oc1ccc([N+](=O)[O-])cc1[N+](=O)[O-])C(c1ccccc1)c1ccccc1 [fragment 30, 2,4-Dinitrophenyl 2,2-diphenylacetate]
isoTOP-ABPP reactivity ratio at lysine P52594_K134 ([1]; 50 uM, 231 sol, in vitro): 14.3
isoTOP-ABPP reactivity ratio at lysine Q9BSH5_K15 ([2]; 50 uM, in vitro): 20.0
isoTOP-ABPP reactivity ratio at lysine P61221_K191 ([3]; 50 uM, in vitro): 1.1
isoTOP-ABPP reactivity ratio at lysine P61221_K478 ([3]; 50 uM, in vitro): 1.1

O=C(Oc1ccc([N+](=O)[O-])cc1[N+](=O)[O-])c1ccc2ccccc2n1 [fragment 35, 2,4-Dinitrophenyl quinoline-2-carboxylate]
isoTOP-ABPP ratio (R) at liganded lysine Q9BSH5_K15 ([2]; 50 uM, in vitro, sol, 231): 7.0
isoTOP-ABPP ratio (R) at liganded lysine P61221_K191 ([3]; 50 uM, in vitro, sol, 231): 1.1
isoTOP-ABPP ratio (R) at liganded lysine P61221_K478 ([3]; 50 uM, in vitro, sol, 231): 1.1

O=C(Oc1c(F)c(F)c(F)c(F)c1F)c1cc(C(F)(F)F)cc(C(F)(F)F)c1 [fragment 21, Pentafluorophenyl 3,5-bis(trifluoromethyl)benzoate]
R value (DMSO/fragment) for probe 1 labeling ([2]; 50 uM, in vitro): 1.0
R value (DMSO/fragment) for probe 1 labeling ([3]; P61221_K191, 50 uM, in vitro): 1.0
